From patent EP3212201B1, “NUCLEOSIDE KINASE INHIBITORS” (BCI Pharma, priority 2014, dated 2016)

Columns and labels:
Test in all cases: FRET-based coupled-enzyme protein kinase inhibition assay
Assay type in all cases: biochemical
Settings in all cases: compound at 10 µM, 1% DMSO
ABL1 = ABL1 (Homo sapiens, UniProt P00519)
Procedure, shortened: (§1)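 Inhibition was quantified ratiometrically, as coumarin over fluorescein emission following 400 nm excitation, on a doubly labeled peptide whose cleavage by development reagent requires it to remain unphosphorylated. Kinase reactions ran 60 min at room temperature with ATP at apparent Km.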

AKT1 (PKB alpha) = AKT1 (PKB alpha) (Homo sapiens, UniProt P31749)
Chain of AKT1 (PKB alpha) (P31749 whole entry, species assumed): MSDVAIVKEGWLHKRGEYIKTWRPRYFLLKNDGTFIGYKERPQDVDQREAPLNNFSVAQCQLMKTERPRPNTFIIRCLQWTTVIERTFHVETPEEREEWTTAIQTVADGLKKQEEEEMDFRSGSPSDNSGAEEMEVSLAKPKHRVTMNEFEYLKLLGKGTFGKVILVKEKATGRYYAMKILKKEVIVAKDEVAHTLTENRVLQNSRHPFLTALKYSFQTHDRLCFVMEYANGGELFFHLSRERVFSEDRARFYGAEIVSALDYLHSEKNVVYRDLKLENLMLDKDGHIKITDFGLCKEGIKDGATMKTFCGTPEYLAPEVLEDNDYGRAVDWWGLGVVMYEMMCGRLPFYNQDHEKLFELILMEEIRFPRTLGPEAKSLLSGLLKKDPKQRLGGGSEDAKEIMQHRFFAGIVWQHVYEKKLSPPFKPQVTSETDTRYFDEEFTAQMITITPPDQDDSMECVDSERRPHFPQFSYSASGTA
Procedure, shortened: as §1

CSNK2A1 (CK2 alpha 1) = CSNK2A1 (CK2 alpha 1) (Homo sapiens, UniProt P68400)
Chain of CSNK2A1 (CK2 alpha 1) (P68400 whole entry, species assumed): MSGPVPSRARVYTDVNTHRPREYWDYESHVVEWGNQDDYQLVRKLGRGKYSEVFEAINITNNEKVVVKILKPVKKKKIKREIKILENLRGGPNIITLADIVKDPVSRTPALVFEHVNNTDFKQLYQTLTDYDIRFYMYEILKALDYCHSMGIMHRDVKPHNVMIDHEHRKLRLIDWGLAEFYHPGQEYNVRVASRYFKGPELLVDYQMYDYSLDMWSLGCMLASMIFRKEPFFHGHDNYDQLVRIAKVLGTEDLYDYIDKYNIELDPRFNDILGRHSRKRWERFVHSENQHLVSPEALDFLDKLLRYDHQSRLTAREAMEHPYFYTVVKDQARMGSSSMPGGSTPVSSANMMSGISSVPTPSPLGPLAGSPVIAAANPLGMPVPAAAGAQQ
Procedure, shortened: as §1

KIT = KIT (Homo sapiens, UniProt P10721)
Chain of KIT (P10721 26-976, species assumed): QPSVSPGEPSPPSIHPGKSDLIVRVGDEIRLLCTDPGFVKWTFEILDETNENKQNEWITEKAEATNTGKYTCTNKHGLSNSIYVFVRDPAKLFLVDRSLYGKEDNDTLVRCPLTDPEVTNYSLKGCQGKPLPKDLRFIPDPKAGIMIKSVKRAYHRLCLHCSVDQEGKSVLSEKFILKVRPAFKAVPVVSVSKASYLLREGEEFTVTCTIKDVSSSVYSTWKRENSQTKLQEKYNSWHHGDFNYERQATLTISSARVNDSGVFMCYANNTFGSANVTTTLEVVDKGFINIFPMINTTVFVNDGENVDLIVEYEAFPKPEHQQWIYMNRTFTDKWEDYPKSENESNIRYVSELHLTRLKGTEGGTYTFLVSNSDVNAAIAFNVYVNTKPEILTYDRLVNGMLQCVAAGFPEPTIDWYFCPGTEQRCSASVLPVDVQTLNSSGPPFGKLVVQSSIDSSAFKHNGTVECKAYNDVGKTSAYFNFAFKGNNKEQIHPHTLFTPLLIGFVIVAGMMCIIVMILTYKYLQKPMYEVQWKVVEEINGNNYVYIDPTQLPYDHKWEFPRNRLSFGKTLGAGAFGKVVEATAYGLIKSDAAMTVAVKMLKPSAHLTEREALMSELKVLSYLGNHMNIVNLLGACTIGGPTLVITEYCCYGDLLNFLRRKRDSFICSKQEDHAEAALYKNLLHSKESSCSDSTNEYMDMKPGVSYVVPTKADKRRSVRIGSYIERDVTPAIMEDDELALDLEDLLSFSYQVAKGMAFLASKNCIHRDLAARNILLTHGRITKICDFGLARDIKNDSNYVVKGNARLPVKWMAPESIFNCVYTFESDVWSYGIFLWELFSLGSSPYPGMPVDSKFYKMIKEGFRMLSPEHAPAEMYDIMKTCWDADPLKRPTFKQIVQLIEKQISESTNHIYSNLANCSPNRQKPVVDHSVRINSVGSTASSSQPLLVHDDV
Procedure, shortened: as §1

MAP2K1 (MEK1) = MAP2K1 (MEK1) (Homo sapiens, UniProt Q02750)
Chain of MAP2K1 (MEK1) (Q02750 whole entry, species assumed): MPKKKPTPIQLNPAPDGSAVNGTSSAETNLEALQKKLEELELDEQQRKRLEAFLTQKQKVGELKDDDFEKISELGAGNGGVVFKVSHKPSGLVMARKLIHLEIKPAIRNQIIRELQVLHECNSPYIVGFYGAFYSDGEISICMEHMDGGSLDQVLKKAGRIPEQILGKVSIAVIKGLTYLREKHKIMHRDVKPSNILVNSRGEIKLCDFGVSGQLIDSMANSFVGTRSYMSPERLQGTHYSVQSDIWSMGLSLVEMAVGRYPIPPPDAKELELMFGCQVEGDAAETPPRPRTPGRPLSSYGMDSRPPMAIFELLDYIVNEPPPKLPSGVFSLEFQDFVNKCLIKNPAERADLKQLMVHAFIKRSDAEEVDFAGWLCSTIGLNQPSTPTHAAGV
Procedure, shortened: as §1

MET (cMet) = MET (cMet) (Homo sapiens, UniProt P08581)
Chain of MET (cMet) (P08581 25-1390): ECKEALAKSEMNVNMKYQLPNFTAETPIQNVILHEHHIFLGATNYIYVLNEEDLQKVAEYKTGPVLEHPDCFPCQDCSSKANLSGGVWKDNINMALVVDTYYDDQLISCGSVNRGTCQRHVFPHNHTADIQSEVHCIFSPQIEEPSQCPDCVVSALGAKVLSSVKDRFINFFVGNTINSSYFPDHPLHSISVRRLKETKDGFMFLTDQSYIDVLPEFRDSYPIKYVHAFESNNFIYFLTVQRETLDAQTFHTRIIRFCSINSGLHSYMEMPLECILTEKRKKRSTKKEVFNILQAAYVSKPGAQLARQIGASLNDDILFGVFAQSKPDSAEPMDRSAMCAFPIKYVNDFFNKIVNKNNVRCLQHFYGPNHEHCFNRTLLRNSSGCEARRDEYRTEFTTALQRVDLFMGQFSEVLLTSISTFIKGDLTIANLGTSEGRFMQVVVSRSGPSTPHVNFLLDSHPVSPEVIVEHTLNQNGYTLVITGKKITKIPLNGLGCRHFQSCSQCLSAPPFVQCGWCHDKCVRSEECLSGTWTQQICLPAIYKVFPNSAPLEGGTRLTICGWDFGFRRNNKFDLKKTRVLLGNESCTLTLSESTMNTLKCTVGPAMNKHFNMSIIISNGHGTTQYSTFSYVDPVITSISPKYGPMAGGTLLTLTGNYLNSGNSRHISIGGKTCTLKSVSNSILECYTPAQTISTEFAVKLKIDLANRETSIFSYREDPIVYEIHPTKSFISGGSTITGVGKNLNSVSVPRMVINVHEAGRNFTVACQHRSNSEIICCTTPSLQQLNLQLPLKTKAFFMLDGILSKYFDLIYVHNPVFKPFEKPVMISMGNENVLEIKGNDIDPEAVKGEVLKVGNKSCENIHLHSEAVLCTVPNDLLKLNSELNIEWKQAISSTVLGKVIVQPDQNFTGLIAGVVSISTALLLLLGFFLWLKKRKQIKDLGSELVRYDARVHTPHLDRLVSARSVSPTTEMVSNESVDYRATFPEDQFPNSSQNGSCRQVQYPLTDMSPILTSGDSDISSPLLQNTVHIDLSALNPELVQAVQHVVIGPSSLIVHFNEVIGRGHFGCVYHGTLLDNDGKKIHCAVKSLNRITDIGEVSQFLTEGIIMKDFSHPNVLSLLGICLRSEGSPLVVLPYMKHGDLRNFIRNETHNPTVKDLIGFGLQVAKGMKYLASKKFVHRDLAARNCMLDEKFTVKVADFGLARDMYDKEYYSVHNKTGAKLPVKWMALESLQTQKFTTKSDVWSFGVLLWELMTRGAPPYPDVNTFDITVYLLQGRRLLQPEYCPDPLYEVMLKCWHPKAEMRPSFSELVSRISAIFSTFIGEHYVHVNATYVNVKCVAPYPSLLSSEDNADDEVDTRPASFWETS
Procedure, shortened: as §1

NEK1 = target: T1, NEK1 (Homo sapiens, UniProt Q96PY6)
T1 sequence (Q96PY6 1-1258): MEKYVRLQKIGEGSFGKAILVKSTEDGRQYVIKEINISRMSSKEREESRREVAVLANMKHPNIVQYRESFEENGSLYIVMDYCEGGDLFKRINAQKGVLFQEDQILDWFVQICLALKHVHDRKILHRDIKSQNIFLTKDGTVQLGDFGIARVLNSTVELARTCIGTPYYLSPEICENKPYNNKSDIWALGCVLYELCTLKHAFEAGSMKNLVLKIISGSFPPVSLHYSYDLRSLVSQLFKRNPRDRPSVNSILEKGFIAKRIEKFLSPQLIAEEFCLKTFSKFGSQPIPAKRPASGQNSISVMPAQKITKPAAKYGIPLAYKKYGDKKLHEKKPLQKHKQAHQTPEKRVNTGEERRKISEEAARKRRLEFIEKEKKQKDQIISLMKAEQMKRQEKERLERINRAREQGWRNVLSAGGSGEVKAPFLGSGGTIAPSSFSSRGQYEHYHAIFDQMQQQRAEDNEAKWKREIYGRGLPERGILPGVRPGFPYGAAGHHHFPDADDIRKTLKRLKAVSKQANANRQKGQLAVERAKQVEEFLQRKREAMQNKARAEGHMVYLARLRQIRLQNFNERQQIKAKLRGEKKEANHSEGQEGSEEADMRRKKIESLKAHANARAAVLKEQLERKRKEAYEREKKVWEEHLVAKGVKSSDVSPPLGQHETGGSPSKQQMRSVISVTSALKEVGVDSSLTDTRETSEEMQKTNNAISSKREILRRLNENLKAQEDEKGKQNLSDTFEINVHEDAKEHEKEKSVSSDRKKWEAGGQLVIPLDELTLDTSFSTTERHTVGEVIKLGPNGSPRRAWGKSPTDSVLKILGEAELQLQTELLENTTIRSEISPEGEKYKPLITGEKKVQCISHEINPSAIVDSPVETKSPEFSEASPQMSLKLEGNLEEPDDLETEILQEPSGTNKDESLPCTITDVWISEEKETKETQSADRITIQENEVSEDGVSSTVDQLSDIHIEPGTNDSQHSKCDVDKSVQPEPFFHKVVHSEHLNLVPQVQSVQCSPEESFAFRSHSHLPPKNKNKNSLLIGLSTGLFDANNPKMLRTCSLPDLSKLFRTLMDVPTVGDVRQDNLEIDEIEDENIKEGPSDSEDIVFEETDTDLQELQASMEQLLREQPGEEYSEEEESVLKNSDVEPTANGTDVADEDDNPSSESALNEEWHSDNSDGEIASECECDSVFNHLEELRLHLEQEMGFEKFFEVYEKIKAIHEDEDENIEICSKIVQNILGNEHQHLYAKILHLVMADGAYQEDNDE
Procedure, shortened: as §1

PDGFRB (PDGFR beta) = PDGFRB (PDGFR beta) (Homo sapiens, UniProt P09619)
Chain of PDGFRB (PDGFR beta) (P09619 33-1106, species assumed): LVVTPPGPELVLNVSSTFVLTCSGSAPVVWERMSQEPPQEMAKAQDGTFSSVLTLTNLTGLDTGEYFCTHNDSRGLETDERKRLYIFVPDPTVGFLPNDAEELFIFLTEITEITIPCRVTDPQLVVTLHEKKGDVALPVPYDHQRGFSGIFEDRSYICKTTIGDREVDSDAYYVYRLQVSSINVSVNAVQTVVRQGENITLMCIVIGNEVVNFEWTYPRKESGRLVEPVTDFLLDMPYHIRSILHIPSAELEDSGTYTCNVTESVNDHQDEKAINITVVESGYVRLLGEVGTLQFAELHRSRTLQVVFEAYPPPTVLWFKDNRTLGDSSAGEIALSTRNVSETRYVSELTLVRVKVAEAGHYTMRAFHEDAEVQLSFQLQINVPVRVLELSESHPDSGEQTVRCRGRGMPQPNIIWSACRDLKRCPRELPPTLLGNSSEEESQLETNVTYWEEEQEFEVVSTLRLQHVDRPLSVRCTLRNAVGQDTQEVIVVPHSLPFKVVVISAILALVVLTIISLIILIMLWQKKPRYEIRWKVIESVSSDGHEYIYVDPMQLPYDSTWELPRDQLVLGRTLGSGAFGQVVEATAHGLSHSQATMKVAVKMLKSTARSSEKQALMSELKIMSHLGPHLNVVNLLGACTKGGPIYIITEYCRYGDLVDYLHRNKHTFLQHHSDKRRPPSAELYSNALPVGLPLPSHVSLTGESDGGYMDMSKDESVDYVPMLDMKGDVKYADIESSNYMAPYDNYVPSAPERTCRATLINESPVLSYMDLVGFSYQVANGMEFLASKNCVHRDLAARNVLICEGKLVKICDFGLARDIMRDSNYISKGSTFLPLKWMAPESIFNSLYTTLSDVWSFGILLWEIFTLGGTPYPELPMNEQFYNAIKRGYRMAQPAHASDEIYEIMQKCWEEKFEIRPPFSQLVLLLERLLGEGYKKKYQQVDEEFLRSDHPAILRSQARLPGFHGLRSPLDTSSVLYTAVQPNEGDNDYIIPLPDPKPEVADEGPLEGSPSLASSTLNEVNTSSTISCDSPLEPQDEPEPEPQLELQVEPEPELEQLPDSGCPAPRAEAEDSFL
Procedure, shortened: as §1

PRKACA (PKA) = PRKACA (PKA) (Homo sapiens, UniProt P17612)
Procedure, shortened: as §1

TEK (Tie2) = TEK (Tie2) (Homo sapiens, UniProt Q02763)
Procedure, shortened: as §1

SMILES | inhibition at 10 µM (ABL1) | inhibition at 10 µM (AKT1 (PKB alpha)) | inhibition at 10 µM (CSNK2A1 (CK2 alpha 1)) | inhibition at 10 µM (KIT) | inhibition at 10 µM (MAP2K1 (MEK1)) | inhibition at 10 µM (MET (cMet)) | inhibition at 10 µM (NEK1) | inhibition at 10 µM (PDGFRB (PDGFR beta)) | inhibition at 10 µM (PRKACA (PKA)) | inhibition at 10 µM (TEK (Tie2))
CN1CCN(CCNC(=O)OC[C@H]2O[C@@H](n3cnc4c(N)ncnc43)[C@H](O)[C@@H]2O)CC1 [Compound C46] | 10% | 4% | 5% | 6% | -1% | 8% | 7% | 1% | 3% | 0%
Nc1ncnc2c1ncn2[C@@H]1O[C@H](COC(=O)N2CCC(Cc3ccc(F)cc3)C2)[C@@H](O)[C@H]1O (some centres unmarked) [Compound C66] | -2% | -1% | -5% | -7% | -1% | -14% | -5% | 4% | 1% | 4%
CN(C)CCNC(=O)OC[C@H]1O[C@@H](n2cnc3c(N)ncnc32)[C@H](O)[C@@H]1O [Compound C85] | -2% | 4% | 7% | 10% | -3% | -12% | 1% | 8% | -2% | 0%
CS(=O)(=O)N1CC2(CCN(C(=O)OC[C@H]3O[C@@H](n4cnc5c(N)ncnc54)[C@H](O)[C@@H]3O)CC2)c2ccccc21 [Compound C98] | 15% | 2% | 2% | 20% | 4% | -12% | 0% | 10% | -2% | 58%

Now from value to compound:

inhibition at 10 µM (ABL1) | inhibition at 10 µM (AKT1 (PKB alpha)) | inhibition at 10 µM (CSNK2A1 (CK2 alpha 1)) | inhibition at 10 µM (KIT) | inhibition at 10 µM (MAP2K1 (MEK1)) | inhibition at 10 µM (MET (cMet)) | inhibition at 10 µM (NEK1) | inhibition at 10 µM (PDGFRB (PDGFR beta)) | inhibition at 10 µM (PRKACA (PKA)) | inhibition at 10 µM (TEK (Tie2)) | SMILES
2% | 0% | 3% | 6% | 4% | -5% | -7% | 1% | -1% | -4% | Nc1ncnc2c1ncn2[C@@H]1O[C@H](COC(=O)N2CCN(CCc3ccccc3)CC2)[C@@H](O)[C@H]1O [Compound C26]
-7% | 8% | 4% | 12% | 3% | -2% | 6% | 4% | -4% | 1% | N#CCCN1CCN(C(=O)OC[C@H]2O[C@@H](n3cnc4c(N)ncnc43)[C@H](O)[C@@H]2O)CC1 [Compound C70]
-3% | 2% | 8% | -16% | -2% | -4% | -7% | 9% | -1% | -2% | Nc1ncnc2c1ncn2[C@@H]1O[C@H](COC(=O)N2CCN(C(=O)N3CCOCC3)CC2)[C@@H](O)[C@H]1O [Compound C89]
1% | 8% | 5% | -9% | 5% | -3% | -3% | 4% | -3% | 2% | Nc1ncnc2c1ncn2[C@@H]1O[C@H](COC(=O)N2CCS(=O)(=O)CC2)[C@@H](O)[C@H]1O [Compound C100]
